From patent publication US20080269170A1, “Novel 2,4-Dianilinopyrimidine Derivatives, the Preparation Thereof, Their Use as Medicaments, Pharmaceutical Compositions and, in Particular, as IKK Inhibitors” (sanofi-aventis, priority 2005, published 2008) come the findings set out here.

The term melting point denotes the temperature, or range, at which the solid turns liquid. On to `CCN1CCC(N(C)S(=O)(=O)c2ccc(Nc3nccc(Nc4ccc(F)cc4)n3)cc2)CC1` [Example 10, N-(1-Ethylpiperidin-4-yl)-4-[4-(4-fluoro-phenylamino)pyrimidin-2-ylamino]-N-methylbenzene-sulfonamide], for which the melting point was 162 to 163 °C. The compound `CN1CCC(N(C)S(=O)(=O)c2ccc(Nc3nccc(Nc4ccc(F)c(F)c4)n3)cc2)CC1` [Example 11, 4-[4-(3,4-Difluorophenylamino)pyrimidin-2-ylamino]-N-methyl-N-(1-methylpiperidin-4-yl)benzene-sulfonamide] came in with a melting point of 181 to 183 °C. For `CN1CCC(N(C)S(=O)(=O)c2ccc(Nc3nccc(Nc4ccc(F)c(Cl)c4)n3)cc2)CC1` [Example 12, 4-[4-(3-Chloro-4-fluorophenylamino)pyrimidin-2-ylamino]-N-methyl-N-(1-methylpiperidin-4-yl)benzenesulfonamide], the melting point was 183 to 186 °C.

`CN(C1CCN(Cc2cccs2)CC1)S(=O)(=O)c1ccc(Nc2nccc(Nc3ccc(F)cc3)n2)cc1` [Example 13, 4-[4-(4-Fluorophenylamino)pyrimidin-2-ylamino]-N-methyl-N-(1-thiophen-2-ylmethylpiperidin-4-yl)benzenesulfonamide] came in with a melting point of 175 to 176 °C. The compound `CN1CCC(N(C2CC2)S(=O)(=O)c2ccc(Nc3nccc(Nc4ccc(F)cc4)n3)cc2)CC1` [Example 14, N-Cyclopropyl-4-[4-(4-fluorophenylamino)-pyrimidin-2-ylamino]-N-(1-methylpiperidin-4-yl)benzene-sulfonamide] came in with a melting point of 218 °C.

In turn, `CCN(C1CCN(Cc2ccccc2)C1)S(=O)(=O)c1ccc(Nc2nccc(Nc3ccc(F)cc3)n2)cc1` (stereo not drawn) [Example 15, N-(1-Benzylpyrrolidin-3-yl)-4-[4-(4-fluoro-phenylamino)pyrimidin-2-ylamino]-N-ethylbenzene-sulfonamide] came in with a melting point of 125 to 127 °C. Consider `CN(C1CCN(Cc2ccsc2)CC1)S(=O)(=O)c1ccc(Nc2nccc(Nc3ccc(F)cc3)n2)cc1` [Example 16, 4-[4-(4-Fluorophenylamino)pyrimidin-2-ylamino]-N-methyl-N-(1-thiophen-3-ylmethylpiperidin-4-yl)benzenesulfonamide], for which the melting point was in the range of 173 to 174 °C.

`CN(C)CCN(C1CCN(C)CC1)S(=O)(=O)c1ccc(Nc2nccc(Nc3ccc(F)cc3)n2)cc1` [Example 18, N-(2-Dimethylaminoethyl)-4-[4-(4-fluoro-phenylamino)pyrimidin-2-ylamino]-N-(1-methylpiperidin-4-yl)benzenesulfonamide]: the melting point is 135 to 137 °C. Regarding `CN1CCC(N(CCO)S(=O)(=O)c2ccc(Nc3nccc(Nc4ccc(F)cc4)n3)cc2)CC1` [Example 19, 4-[4-(4-Fluorophenylamino)pyrimidin-2-ylamino]-N-(2-hydroxyethyl)-N-(1-methylpiperidin-4-yl)-benzenesulfonamide], the melting point was in the range of 125 to 135 °C. With `CN1CCC(N(C)S(=O)(=O)c2ccc(Nc3nc(Cl)cc(Nc4ccc(F)cc4)n3)cc2)CC1` [Example 20, 4-[4-Chloro-6-(4-fluorophenylamino)pyrimidin-2-ylamino]-N-methyl-N-(1-methylpiperidin-4-yl)benzenesulfonamide] the figure was 140 to 142 °C; with `CN1CCC(N(C)C(=O)CNS(=O)(=O)c2ccc(Nc3nccc(Nc4ccc(F)cc4)n3)cc2)CC1` [Example 25, 2-{4-[4-(4-Fluorophenylamino)pyrimidin-2-ylamino]benzenesulfonylamino}-N-methyl-N-(1-methyl-piperidin-4-yl)acetamide], 233 to 234.4 °C. With `CN(C1CCN(Cc2cc[n+]([O-])cc2)CC1)S(=O)(=O)c1ccc(Nc2nccc(Nc3ccc(F)cc3)n2)cc1` [Example 29, 4-[4-(4-Fluorophenylamino)pyrimidin-2-ylamino]-N-[1-(1-N-oxidepyridin-4-ylmethyl)piperidin-4-yl]-N-methylbenzenesulfonamide] the figure was 155 to 156 °C; with `Cc1ncc(CN2CCC(N(C)S(=O)(=O)c3ccc(Nc4nccc(Nc5ccc(F)cc5)n4)cc3)CC2)[nH]1` [Example 30, 4-[4-(4-Fluorophenylamino)pyrimidin-2-ylamino]-N-methyl-N-[1-(2-methyl-3H-imidazol-4-ylmethyl)piperidin-4-yl]benzenesulfonamide], 155 °C; with `CN(C1CCN(Cc2ccccc2F)CC1)S(=O)(=O)c1ccc(Nc2nccc(Nc3ccc(F)cc3)n2)cc1` [Example 31, N-[1-(2-Fluorobenzyl)piperidin-4-yl]-4-[4-(4-fluorophenylamino)pyrimidin-2-ylamino]-N-methyl-benzenesulfonamide], 182 to 183 °C.

For `CN(C1CCN(Cc2cccc(F)c2)CC1)S(=O)(=O)c1ccc(Nc2nccc(Nc3ccc(F)cc3)n2)cc1` [Example 32, N-[1-(3-Fluorobenzyl)piperidin-4-yl]-4-[4-(4-fluorophenylamino)pyrimidin-2-ylamino]-N-methyl-benzenesulfonamide], the melting point is 207 °C.

In turn, `CN(C1CCN(Cc2ccc(F)cc2)CC1)S(=O)(=O)c1ccc(Nc2nccc(Nc3ccc(F)cc3)n2)cc1` [Example 33, N-[1-(4-Fluorobenzyl)piperidin-4-yl]-4-[4-(4-fluorophenylamino)pyrimidin-2-ylamino]-N-methyl-benzenesulfonamide] returned a melting point of 129 to 131 °C. Next, `CC(C)N1CCC(N(C)S(=O)(=O)c2ccc(Nc3nccc(Nc4ccc(F)cc4)n3)cc2)CC1` [Example 37, 4-[4-(4-Fluorophenylamino)pyrimidin-2-yl-amino]-N-(1-isopropylpiperidin-4-yl)-N-methylbenzene-sulfonamide]: 202 to 203 °C; `CC(C)CN1CCC(N(C)S(=O)(=O)c2ccc(Nc3nccc(Nc4ccc(F)cc4)n3)cc2)CC1` [Example 38, 4-[4-(4-Fluorophenylamino)pyrimidin-2-yl-amino]-N-(1-isobutylpiperidin-4-yl)-N-methylbenzene-sulfonamide]: 194 to 195 °C. Next, `CC(C)CCN1CCC(N(C)S(=O)(=O)c2ccc(Nc3nccc(Nc4ccc(F)cc4)n3)cc2)CC1` [Example 39, 4-[4-(4-Fluorophenylamino)pyrimidin-2-yl-amino]-N-methyl-N-[1-(3-methylbutyl)piperidin-4-yl]-benzenesulfonamide]: 184 to 185 °C.

`CN(C1CCN(CCCC(F)(F)F)CC1)S(=O)(=O)c1ccc(Nc2nccc(Nc3ccc(F)cc3)n2)cc1` [Example 40, 4-[4-(4-Fluorophenylamino)pyrimidin-2-yl-amino]-N-methyl-N-[1-(4,4,4-trifluorobutyl)piperidin-4-yl]benzenesulfonamide] yielded a melting point of 166 to 167 °C. Turning to `Cc1cc(Nc2ccnc(Nc3ccc(S(=O)(=O)N(CCN)C4CCNCC4)cc3)n2)ccc1F` [Example 48, N-(2-Aminoethyl)-4-[4-(4-fluoro-3-methyl-phenylamino)pyrimidin-2-ylamino]-N-piperidin-4-yl-benzenesulfonamide], the melting point fell in the range of 242 to 244 °C. Next, `CN(C1CCN(CC(C)(C)O)CC1)S(=O)(=O)c1ccc(Nc2nccc(Nc3ccc(F)cc3)n2)cc1` [Example 49, 4-[4-(4-Fluorophenylamino)pyrimidin-2-yl-amino]-N-[1-(2-hydroxy-2-methylpropyl)piperidin-4-yl]-N-methylbenzenesulfonamide]: 216 to 217 °C; `Cc1cc(Nc2ccnc(Nc3ccc(S(=O)(=O)N(C)C4CCN(C)CC4)cc3)n2)ccc1F` [Example 86, 4-({4-[(4-fluoro-3-methylphenyl)amino]-pyrimidin-2-yl}amino)-N-methyl-N-(1-methylpiperidin-4-yl)benzenesulfonamide]: 110 to 120 °C; `Cc1cc(Nc2ccnc(Nc3ccc(S(=O)(=O)N(CCN4CCCC4)C4CCN(C)CC4)cc3)n2)ccc1F` [Example 87, 4-({4-[(4-Fluoro-3-methylphenyl)amino]-pyrimidin-2-yl}amino)-N-(1-methylpiperidin-4-yl)-N-(2-pyrrolidin-1-ylethyl)benzenesulfonamide]: 93 to 103 °C. Next, `CN1CCC(N(CCN2CCCC2)S(=O)(=O)c2ccc(Nc3nccc(Nc4ccc(F)cc4)n3)cc2)CC1` [Example 89, 4-({4-[(4-Fluorophenyl)amino]pyrimidin-2-yl}amino)-N-(1-methylpiperidin-4-yl)-N-(2-pyrrolidin-1-ylethyl)benzenesulfonamide]: 250 °C.

`CC(C)(O)CNCCN(C1CCNCC1)S(=O)(=O)c1ccc(Nc2nccc(Nc3ccc(F)cc3)n2)cc1` [Example 102, 4-({4-[(4-Fluorophenyl)amino]pyrimidin-2-yl}amino)-N-{2-[(2-hydroxy-2-methylpropyl)amino]ethyl}-N-piperidin-4-ylbenzenesulfonamide] gave a melting point of 120 °C. In turn, `O=S(=O)(c1ccc(Nc2nccc(Nc3ccc(F)cc3)n2)cc1)N(CCNCC(F)(F)F)C1CCN(Cc2ccccc2)CC1` [Example 103, N-(1-Benzylpiperidin-4-yl)-4-({4-[(4-fluorophenyl)amino]pyrimidin-2-yl}amino)-N-{2-[(2,2,2-trifluoroethyl)amino]ethyl}benzenesulfonamide] showed a melting point of 137 to 138 °C. In turn, `CCN1CC(N(CCN2CCCC2)S(=O)(=O)c2ccc(Nc3nccc(Nc4ccc(F)c(C)c4)n3)cc2)C1` [Example 104, N-(1-Ethylazetidin-3-yl)-4-({4-[(4-fluoro-3-methylphenyl)amino]pyrimidin-2-yl}amino)-N-(2-pyrrolidin-1-ylethyl)benzenesulfonamide] registered a melting point of 195 °C. With `CN(C1CCN(CCC(F)(F)F)CC1)S(=O)(=O)c1ccc(Nc2nccc(Nc3ccc(F)cc3)n2)cc1` [Example 107, 4-({4-[(4-Fluorophenyl)amino]pyrimidin-2-yl}amino)-N-methyl-N-[1-(3,3,3-trifluoropropyl)piperidin-4-yl]benzenesulfonamide] the figure was 195 to 196 °C. Next, `CN(C1CCN(CCCC(F)(F)F)CC1)S(=O)(=O)c1ccc(Nc2nccc(Nc3ccc(F)c(F)c3)n2)cc1` [Example 108, 4-({4-[(3,4-Difluorophenyl)amino]pyrimidin-2-yl}amino)-N-methyl-N-[1-(4,4,4-trifluorobutyl)-piperidin-4-yl]benzenesulfonamide]: 192 °C.
